For 4 compounds, MIC results are on record in patent publication US8304445B2, “7-pyrazolyl tetracycline compounds and methods of use thereof” (Paratek Pharmaceuticals, Inc., priority 2001, dated 2012).

Structures are written as SMILES. Values after ≈ are worked out from the molar mass of the structure shown.

Common to all, as to type: cell-based
Settings in all cases: Mueller-Hinton broth, 37° C., 18 h

Assay [1] relates to M. catarrhalis ATCC 23246. Description: MIC, broth microdilution, M. catarrhalis ATCC 23246. The protocol:
(§1) Growth-inhibitory activity was determined on liquid medium by the antibiotic dilution technique using 96-well microtiter system plates containing two-fold dilutions of antibiotic-agent in 0.2 ml. of Mueller-Hinton broth. Plates were inoculated with each test organism to yield a final inoculum of 5×10^5 CFU/ml and were incubated aerobically at 37° C. for 18 h. The MIC was defined as the lowest concentration of antibacterial agent that inhibited development of visible growth in the microdilution wells.

The next assay concerns S. aureus GFX01596 Tet R. The experiment in a line: MIC, broth microdilution, S. aureus GFX01596 Tet R. Here is the method: as §1
(In general: In broth dilution the organism is exposed to a series of concentrations in liquid medium.)

For another assay, the system named is S. pneumoniae 157. Description: MIC, broth microdilution, S. pneumoniae 157. Here is the method: as §1
A further assay has as its system S. aureus ATCC 29213. Description: MIC, broth microdilution, S. aureus ATCC 29213. The protocol:
as §1

Assay [2] relates to S. pneumoniae GFX01778 Tet R. Description: MIC, broth microdilution, S. pneumoniae GFX01778 Tet R. Here is the method:
as §1

A further assay deals with E. coli ML 308-225. Description: MIC, broth microdilution, E. coli ML 308-225. The protocol: as §1
A further assay has as its system H. influenzae ATCC 49247. Description: MIC, broth microdilution, H. influenzae ATCC 49247. Here is the method:
as §1

In the case of `CN(C)[C@@H]1C(O)=C(C(N)=O)C(=O)[C@@]2(O)C(O)=C3C(=O)c4c(O)ccc(-n5ccc(C=O)c5)c4C[C@H]3C[C@@H]12` [Example 3, [4S-(4aα,5aαα,12aα)]-4-(Dimethylamino)-7-(1H-pyrrol-1-yl-3-carboxaldehyde)-1,4,4a,5,5a,6,11,12a-octahydro-3,10,12,12a-tetrahydroxy-1,11-dioxo-2-naphthacenecarboxamide], the MIC in assay [1] was 0.008 µg/mL (≈ 0.0158 µM); in the assay with S. aureus GFX01596 Tet R, 0.25 µg/mL (≈ 0.493 µM); against S. pneumoniae 157 it was 0.015 µg/mL (≈ 0.0296 µM); against S. aureus ATCC 29213 it was 0.015 µg/mL (≈ 0.0296 µM); in assay [2] it was 2 µg/mL (≈ 3.94 µM); against E. coli ML 308-225 it was 0.5 µg/mL (≈ 0.985 µM). This compound also displayed an MIC in the assay with H. influenzae ATCC 49247 of 1 µg/mL (≈ 1.97 µM).
Turning to `CN(C)[C@@H]1C(O)=C(C(N)=O)C(=O)[C@@]2(O)C(O)=C3C(=O)c4c(O)ccc(-n5ccc(C=NO)c5)c4C[C@H]3C[C@@H]12` [Example 4, [4S-(4aα,5aαα,12aα)]-4-(Dimethylamino)-7-(3-((hydroxymino)-methyl)-1H-pyrrol-1-yl)-1,4,4a,5,5a,6,11,12a-octahydro-3, 10,12,12a-tetrahydroxy-1,11-dioxo-2-naphthacenecarboxamide], the MIC in assay [1] is 0.03 µg/mL (≈ 0.0574 µM); in the assay with S. aureus GFX01596 Tet R, 0.5 µg/mL (≈ 0.957 µM); with S. pneumoniae 157, 0.03 µg/mL (≈ 0.0574 µM); against S. aureus ATCC 29213, 0.12 µg/mL (≈ 0.23 µM); in assay [2], 2 µg/mL (≈ 3.83 µM); in the assay on E. coli ML 308-225, 1 µg/mL (≈ 1.91 µM). For the same compound, the MIC in the assay with H. influenzae ATCC 49247 turned out to be 2 µg/mL (≈ 3.83 µM).
As to `CN(C)[C@@H]1C(O)=C(C(N)=O)C(=O)[C@@]2(O)C(O)=C3C(=O)c4c(O)ccc(-n5ccc(C#N)c5)c4C[C@H]3C[C@@H]12` [Example 5, [4S-(4aα,5aαα12aα)]-7-(3-Cyanopyrrol-1-yl)-4-(dimethylamino)-1,4,4a,5,5a,6,11,12a-octahydro-3,10,12,12a-tetrahydroxy-1,11-dioxo-2-naphthacenecarboxamide], the MIC in assay [1] came out at 0.001 µg/mL (≈ 0.00198 µM); in the assay on S. aureus GFX01596 Tet R it was 0.5 µg/mL (≈ 0.991 µM); with S. pneumoniae 157 it was 0.015 µg/mL (≈ 0.0297 µM); against S. aureus ATCC 29213 it was 0.015 µg/mL (≈ 0.0297 µM); in assay [2], 2 µg/mL (≈ 3.96 µM); with E. coli ML 308-225, 0.5 µg/mL (≈ 0.991 µM). In addition, the MIC against H. influenzae ATCC 49247 came to 0.5 µg/mL (≈ 0.991 µM).
Take `CON=Cc1ccn(-c2ccc(O)c3c2C[C@H]2C[C@H]4[C@H](N(C)C)C(O)=C(C(N)=O)C(=O)[C@@]4(O)C(O)=C2C3=O)c1` [Example 6, [4S-(4aα,5aα12aα)]-4-(Dimethylamino)-7-(3-((methyloxymino)methyl)-1H-pyrrol-1-yl)-1,4,4a,5,5a,6,11,12a-octahydro-3,10,12,12a-tetrahydroxy-1,11-dioxo-2-naphthacenecarboxamide]: the MIC was determined as 0.004 µg/mL (≈ 0.00746 µM) in assay [1]; 0.5 µg/mL (≈ 0.932 µM) in the assay on S. aureus GFX01596 Tet R; 0.06 µg/mL (≈ 0.112 µM) against S. pneumoniae 157; 0.12 µg/mL (≈ 0.224 µM) in the assay on S. aureus ATCC 29213; 4 µg/mL (≈ 7.46 µM) in assay [2]; 2 µg/mL (≈ 3.73 µM) against E. coli ML 308-225. The compound further displayed an MIC in the assay on H. influenzae ATCC 49247 of 2 µg/mL (≈ 3.73 µM).
